Assay type in all cases: functional
Assay [1] concerns Enterococcus faecalis. Kind of assay: Compound was evaluated for minimum inhibitory concentration against Enterococcus faecalis 68.
The subject of assay [2] is Enterococcus faecalis. Kind of assay: Compound was evaluated for minimum inhibitory concentration against Enterococcus faecalis 50.
In assay [3] the test system is Streptococcus pyogenes. Kind of assay: Compound was evaluated for minimum inhibitory concentration against Streptococcus pyogenes 102 strain.
The subject of assay [4] is Streptococcus pyogenes. Kind of assay: Compound was evaluated for minimum inhibitory concentration against Streptococcus pyogenes 114 strain.
For assay [5], the system named is Streptococcus sp. Kind of assay: Compound was evaluated for minimum inhibitory concentration against Streptococcus A 29 strain.
Assay [6] has as its system Streptococcus sp. Kind of assay: Compound was evaluated for minimum inhibitory concentration against Streptococcus A 44 strain.
The subject of assay [7] is Staphylococcus aureus. Kind of assay: Compound was evaluated for minimum inhibitory concentration against Staphylococcus aureus 9616 strain.
The subject of assay [8] is Staphylococcus aureus. Kind of assay: Compound was evaluated for minimum inhibitory concentration against Staphylococcus aureus 966 strain.
Assay [9] concerns Staphylococcus aureus. Kind of assay: Compound was evaluated for minimum inhibitory concentration against Staphylococcus aureus 9721 strain.
In assay [10] the test system is Staphylococcus aureus. Kind of assay: Compound was evaluated for minimum inhibitory concentration against Staphylococcus aureus 975 strain.
The test system of assay [11] is Staphylococcus aureus. Kind of assay: Compound was evaluated for minimum inhibitory concentration against Staphylococcus aureus 9776 strain.
Assay [12] relates to Staphylococcus epidermidis. Kind of assay: Compound was evaluated for minimum inhibitory concentration against Staphylococcus epidermidis 975 strain.
Assay [13] concerns Staphylococcus epidermidis. Kind of assay: Compound was evaluated for minimum inhibitory concentration against Staphylococcus epidermidis 9759 strain.
The test system of assay [14] is Streptococcus pneumoniae. Kind of assay: Compound was evaluated for minimum inhibitory concentration against Streptococcus pneumoniae 9753 strain.
Assay [15] concerns Streptococcus pneumoniae. Kind of assay: Compound was evaluated for minimum inhibitory concentration against Streptococcus pneumoniae 9757 strain.
Assay [16] relates to Streptococcus pneumoniae. Kind of assay: Compound was evaluated for minimum inhibitory concentration against Streptococcus pneumoniae 9798 strain.
For assay [17], the system named is Staphylococcus epidermidis. Kind of assay: Compound was evaluated for minimum inhibitory concentration against Staphylococcus epidermidis 9753 strain.
The subject of assay [18] is Enterococcus faecalis. Kind of assay: Compound was evaluated for minimum inhibitory concentration against Enterococcus faecalis 50 strain.

Values after ≈ are worked out from the molar mass of the structure shown.

For orientation: MIC means the lowest concentration that inhibits growth of the organism. For `CC(=O)NC[C@H]1CN(c2ccc(N3CCN(c4ccc(F)cc4)CC3)c(F)c2)C(=O)O1`, the MIC with Enterococcus faecalis [1] amounted to 4 µg/mL (≈ 9.29 µM); against Enterococcus faecalis [2] it was 1 µg/mL (≈ 2.32 µM); in the assay with Streptococcus pyogenes [3], 1 µg/mL (≈ 2.32 µM); against Streptococcus pyogenes [4], 2 µg/mL (≈ 4.65 µM); with Streptococcus sp. [5], 1 µg/mL (≈ 2.32 µM); against Streptococcus sp. [6], 1 µg/mL (≈ 2.32 µM). For the same compound, the MIC in the assay with Staphylococcus aureus [7] was determined as 2 µg/mL (≈ 4.65 µM); against Staphylococcus aureus [8], 1 µg/mL (≈ 2.32 µM); against Staphylococcus aureus [9] it was 1 µg/mL (≈ 2.32 µM); in the assay with Staphylococcus aureus [10] it was 0.5 µg/mL (≈ 1.16 µM); with Staphylococcus aureus [11], 1 µg/mL (≈ 2.32 µM); in assay [12], 1 µg/mL (≈ 2.32 µM). The MIC in [13] was 1 µg/mL (≈ 2.32 µM); against Streptococcus pneumoniae [14], 1 µg/mL (≈ 2.32 µM); in the assay on Streptococcus pneumoniae [15], 1 µg/mL (≈ 2.32 µM); in the assay on Streptococcus pneumoniae [16] it was 1 µg/mL (≈ 2.32 µM); in [17] it was 0.5 µg/mL (≈ 1.16 µM).
On to `CC(=O)NC[C@H]1CN(c2ccc(N3CCN(c4ccccc4)CC3)c(F)c2)C(=O)O1`, for which the MIC against Enterococcus faecalis [1] was 2 µg/mL (≈ 4.85 µM); against Enterococcus faecalis [2], 1 µg/mL (≈ 2.42 µM); in the assay with Streptococcus pyogenes [3], 1 µg/mL (≈ 2.42 µM); against Streptococcus pyogenes [4], 1 µg/mL (≈ 2.42 µM); in the assay on Streptococcus sp. [5], 0.5 µg/mL (≈ 1.21 µM); against Streptococcus sp. [6] it was 2 µg/mL (≈ 4.85 µM). In addition, the MIC worked out at 1 µg/mL (≈ 2.42 µM) with Staphylococcus aureus [7]; 2 µg/mL (≈ 4.85 µM) against Staphylococcus aureus [8]; 1 µg/mL (≈ 2.42 µM) in the assay on Staphylococcus aureus [9]; 1 µg/mL (≈ 2.42 µM) with Staphylococcus aureus [10]; 1 µg/mL (≈ 2.42 µM) in the assay on Staphylococcus aureus [11]; 1 µg/mL (≈ 2.42 µM) in assay [12]. The MIC turned out to be 1 µg/mL (≈ 2.42 µM) in assay [13]; 0.5 µg/mL (≈ 1.21 µM) against Streptococcus pneumoniae [14]; 0.25 µg/mL (≈ 0.606 µM) against Streptococcus pneumoniae [15]; 1 µg/mL (≈ 2.42 µM) against Streptococcus pneumoniae [16]; 0.5 µg/mL (≈ 1.21 µM) in assay [17].
With `COc1ccc(N2CCN(c3ccc(N4C[C@H](CNC(C)=O)OC4=O)cc3F)CC2)cc1`, the MIC was determined as 1 µg/mL (≈ 2.26 µM) against Enterococcus faecalis [2]; 1 µg/mL (≈ 2.26 µM) against Streptococcus pyogenes [3]; 2 µg/mL (≈ 4.52 µM) against Streptococcus pyogenes [4]; 1 µg/mL (≈ 2.26 µM) in the assay on Streptococcus sp. [5]; 1 µg/mL (≈ 2.26 µM) against Streptococcus sp. [6]; 1 µg/mL (≈ 2.26 µM) against Staphylococcus aureus [7]. Further, the minimal inhibitory concentration (MIC) came to 2 µg/mL (≈ 4.52 µM) with Staphylococcus aureus [8]; 1 µg/mL (≈ 2.26 µM) against Staphylococcus aureus [9]; 1 µg/mL (≈ 2.26 µM) in the assay with Staphylococcus aureus [10]; 1 µg/mL (≈ 2.26 µM) in the assay with Staphylococcus aureus [11]; 1 µg/mL (≈ 2.26 µM) in assay [12]; 1 µg/mL (≈ 2.26 µM) in assay [13]. Moreover, the MIC (against Streptococcus pneumoniae [14]; in the assay on Streptococcus pneumoniae [15]; in the assay on Streptococcus pneumoniae [16]; in assay [17]) was 1 µg/mL (≈ 2.26 µM) throughout.
As for `CC(=O)NC[C@H]1CN(c2ccc(N3CCOCC3)c(F)c2)C(=O)O1` [LINEZOLID], the minimal inhibitory concentration (MIC) came out at 0.5 µg/mL (≈ 1.48 µM) with Enterococcus faecalis [18]; 0.5 µg/mL (≈ 1.48 µM) in the assay with Streptococcus pyogenes [3]; 0.5 µg/mL (≈ 1.48 µM) against Streptococcus pyogenes [4]; 0.25 µg/mL (≈ 0.741 µM) in the assay with Streptococcus sp. [5]; 0.5 µg/mL (≈ 1.48 µM) against Streptococcus sp. [6]; 1 µg/mL (≈ 2.96 µM) against Staphylococcus aureus [7]. Moreover, the MIC with Staphylococcus aureus [8] amounted to 0.5 µg/mL (≈ 1.48 µM); with Staphylococcus aureus [9] it was 0.5 µg/mL (≈ 1.48 µM); against Staphylococcus aureus [10] it was 0.25 µg/mL (≈ 0.741 µM); with Staphylococcus aureus [11], 0.5 µg/mL (≈ 1.48 µM); in assay [12], 0.5 µg/mL (≈ 1.48 µM); in assay [13] it was 0.5 µg/mL (≈ 1.48 µM). Inhibition of growth in assay [17] (MIC) required 0.25 µg/mL (≈ 0.741 µM).
Take `CC(=O)NC[C@H]1CN(c2ccc(N3CCN(C(c4ccccc4)c4ccccc4)CC3)c(F)c2)C(=O)O1`: the MIC turned out to be 32 µg/mL (≈ 63.7 µM) with Enterococcus faecalis [1]; 8 µg/mL (≈ 15.9 µM) against Enterococcus faecalis [2]; 32 µg/mL (≈ 63.7 µM) in the assay on Streptococcus pyogenes [3]; 16 µg/mL (≈ 31.8 µM) against Streptococcus pyogenes [4]; 4 µg/mL (≈ 7.96 µM) in the assay on Streptococcus sp. [5]; 32 µg/mL (≈ 63.7 µM) with Streptococcus sp. [6]. Besides, the MIC against Staphylococcus aureus [7] was determined as 8 µg/mL (≈ 15.9 µM); against Staphylococcus aureus [8], 8 µg/mL (≈ 15.9 µM); against Staphylococcus aureus [9], 16 µg/mL (≈ 31.8 µM); in the assay with Staphylococcus aureus [10], 4 µg/mL (≈ 7.96 µM); against Staphylococcus aureus [11], 8 µg/mL (≈ 15.9 µM); in [12] it was 8 µg/mL (≈ 15.9 µM). For the same compound, the MIC in assay [13] amounted to 16 µg/mL (≈ 31.8 µM); in the assay with Streptococcus pneumoniae [14], 4 µg/mL (≈ 7.96 µM); in the assay with Streptococcus pneumoniae [15], 4 µg/mL (≈ 7.96 µM); in the assay with Streptococcus pneumoniae [16], 8 µg/mL (≈ 15.9 µM); in assay [17], 4 µg/mL (≈ 7.96 µM).
